From ChEMBL document CHEMBL3507680, “University of Dundee, Gates Library screen for HepG2 cell viability”

Test: Human HepG2 cell viability assay in 384 well format
Assay type: toxicity, cell-based
Parameters: dose 125 nL, time 70.5 hour; cytotoxicity at 70.5 h: concentration not given beside the values
Settings: HepG2 cells, read-out: Inhibition

| Compound | cytotoxicity at 70.5 h [%] |
| --- | --- |
| COc1ccc(-n2nc(C)c(C(C)=O)c2C)cc1C(N)=O | 2.1 |
| Cc1ccnc(N2CCC(OCCN3CCCCC3)C2)n1 (stereo not given) | -8.76 |
| c1cc(C2CCN(c3cnccn3)CC2)ccn1 | 17.3 |
| Cc1nc(C)c(C(=O)N2Cc3ccccc3OCC2Cn2ccnc2)s1 (stereo not given) | 2.25 |
| O=C(NCCCO)NCCc1cc(F)ccc1F | -0.605 |
| Cc1cc(C(=O)N[C@H](C)c2onc(C)c2C(=O)O)c(C)o1 | -4.02 |
| CCOC(=O)c1coc(N2CCC(C(C)N3CCCC3)CC2)n1 (stereo not given) | -1.58 |
| Cc1nc[nH]c1CN1CCN(C(=O)c2cccs2)[C@H]2CS(=O)(=O)C[C@H]21 | -8.73 |
| CCOc1ccc(NC(C)=O)cc1S(=O)(=O)Nc1nccs1 | 22.7 |
| CN(C)CCCNC(=O)c1ccc(Cl)cc1Cl | -14.1 |
| COc1cc(C(=O)N(Cc2cccs2)C2CC2)cc2c1OCCO2 | 16 |
| Cc1nc(C2CCCN2CCc2cccs2)no1 (stereo not given) | -10.4 |
| Cc1nn(-c2ncccn2)c2c1C(c1cnn(C)c1C)SCC(=O)N2 (stereo not given) | -22.5 |
| Cc1noc(CNc2ccc(CC(=O)N3CCSCC3)cc2)n1 | -5.52 |
| CN1CCC2(CCN(S(=O)(=O)c3ccc(-c4cnco4)s3)CC2)C1 | -8.53 |
| O=C(NCC1CCN(C(=O)c2ccoc2)CC1)c1ccccc1Br | -0.695 |
| CCc1c(C(=O)O)nnn1-c1cc(C)ccc1C | -2.96 |
| CCc1n[nH]c(C2CN(C(=O)CCc3cscn3)CCO2)n1 (stereo not given) | 1.24 |
| CC(C)=CCN1CCN(Cc2cccc(C)n2)CC1CCO (stereo not given) | 6.26 |
| COc1ncc(CN2CCOC(Cc3cccc4ccccc34)C2)cn1 (stereo not given) | 20 |
| COc1ccccc1CCN(C)C(=O)NC(C)c1nncn1C (stereo not given) | -4.33 |
| COCCO[C@H]1CCN(C(=O)c2ccoc2C)[C@H]1Cc1cnn(C)c1 | -114 |
| COc1ccc(C[C@H]2CN(Cc3ccoc3)CC[C@H]2OC)cc1 | -0.279 |

| Compound | cytotoxicity at 70.5 h [%] |
| --- | --- |
| COCc1nc(C2CC2)nn1-c1cc(Cl)ccc1OC | -3.71 |
| Cc1noc([C@@]23CCO[C@@H]2CCN(C(=O)c2c(C)noc2C)C3)n1 | -1.33 |
| COc1ncc(CN2C[C@@H]3CC[C@@](O)(c4ccc(C)cn4)[C@@H]3C2)cn1 | 2.96 |
| CN1CCN(c2ccc(F)cc2NC(=O)NCc2ccon2)CC1 | 0.112 |
| O=C(c1ccncc1)N1C[C@@H]2CC[C@H](C1)N(C(=O)C1CCCC1)C2 | 2.1 |
| Cc1cccc(CN2CCc3nnc(Cn4cccc4)n3CC2)n1 | -5.46 |
| Cc1cc(NCCc2nnc(N)s2)nc(-c2ccccc2)n1 | -2.76 |
| O=C(c1ccco1)N1CCC2(CC1)C(=O)Nc1ccccc12 | -9.22 |
| Cc1cc(C(=O)N2CCCC2)ccc1NCC(=O)N1CCOCC1 | -6.05 |
| Cc1nc(CN2CCCN(C(=O)c3cccnc3O)CC2)cs1 | -4.77 |
| CCOCc1ncn2c1CN(C(=O)Nc1ccc(CC)cc1)CC2 | 14.1 |
| O=C(NC[C@@]1(COc2cnccn2)C[C@@H](O)[C@@H](O)C1)C1CCOCC1 | -1.95 |
| COc1ccc(F)cc1-c1nc2c([nH]1)c(C1CC1)nn2C | -4.46 |
| CC(C)n1cc(-c2c(C#N)c(N)nc3c2COCC3)cn1 | 10.2 |
| O=C(NCCS(=O)(=O)N1CCN(c2ncccn2)CC1)C1CCCC1 | -5.6 |
| CCCc1nnc(C(=O)N(C)Cc2ccc(OC)cc2)o1 | -2.69 |
| O=C(CCN1CCCCO1)NCc1cn2c(n1)SCC2 | -0.977 |
| CC1CCCN(c2nccn3c(=O)[nH]nc23)C1 (stereo not given) | -7.92 |
| CCc1ccccc1NC(=O)c1cccc(N(C)S(C)(=O)=O)c1C | -4.65 |
| Cc1cccn2c(CNC(C)CCn3cccn3)cnc12 (stereo not given) | 3.49 |
| CN(C)c1cnn(CC(=O)N2Cc3ccccc3C2)c(=O)c1 | 22 |
| CCc1ncnc2c1CCN(S(=O)(=O)c1ccccc1)CC2 | 3.38 |
| CCN(C(c1cccnc1)c1ccc2c(c1)CCO2)S(C)(=O)=O (stereo not given) | -4.03 |

| Compound | cytotoxicity at 70.5 h [%] |
| --- | --- |
| Cc1ccc(-c2nc(CN3CCOC(Cn4cccn4)C3)co2)cc1 (stereo not given) | -5.71 |
| COc1ccc(-n2nnc(C(=O)O)c2-c2ccccn2)cc1 | -14.5 |
| COC(=O)CNC(=O)c1cn(Cc2ccccc2F)nn1 | -5.61 |
| Nc1nc(CC(=O)N2CCCC(CCc3cccc(F)c3)C2)cc(=O)[nH]1 (stereo not given) | -12.2 |
| CC1(C)OCC2(CO1)CN(S(=O)(=O)c1ccc(Br)s1)C2 | 4.85 |
| O=C(N1CCC(Oc2ccncc2)C1)C1(c2ccc(F)cc2)CC1 (stereo not given) | 5.93 |
| O=S(=O)(N1CCOCC1)N1CCCCC1CCn1cccn1 (stereo not given) | 3.71 |
| Cc1nc[nH]c1CN(Cc1ccccc1)Cc1nccs1 | -6.42 |
| COCCCC(=O)N(C)c1ccc(F)c(Cl)c1 | -8.74 |
| CCN(C(=O)CN1CCCC1c1ccc(OC)cc1)c1ccccc1 (stereo not given) | 2.59 |
| O=C(O)c1ccc(C2CCCN(Cc3ccc(-c4cc[nH]n4)o3)C2)cc1 (stereo not given) | 16.9 |
| N#CCCN(Cc1ccccn1)C(=O)Nc1cccnc1 | -7.42 |
| CN(Cc1ccsc1)C(=O)c1cc(S(=O)(=O)N(C)C)ccc1Cl | -7.18 |
| O=C(c1ccn(-c2cccc(Cl)c2)n1)N1CCN(CCO)CC1 | 0.676 |
| CCC1=N[C@@]2(CC[C@@H]3CN(S(C)(=O)=O)C[C@@H]32)C(=O)N1CC(C)C | -1.52 |
| CCCN(CCC)C(=O)c1cnn(C)c1C | 9.54 |
| COc1ccccc1NCC(=O)NCc1cc[nH]n1 | 26.9 |
| COC(=O)c1ncccc1N1CCCC1 | -2.82 |
| CC(C)OCc1ccccc1CNC(=O)C(C)S(=O)(=O)C(C)C (stereo not given) | -5.26 |
| CN(C)CC(=O)N1CC2(CCN(Cc3ccccc3)C2)C1 | 35.2 |
| O=C(N1CCCC1)N1CCOCC2(C1)CN(c1ccccc1)C(=O)CO2 (stereo not given) | -3.56 |
| COc1ccccc1CC(=O)NC(CC(=O)O)c1ccc(C)cc1 (stereo not given) | -6.19 |
| NC(=O)c1cccc(NC(=O)CSc2ccc3c(c2)CCC3)c1 | -1.16 |

| Compound | cytotoxicity at 70.5 h [%] |
| --- | --- |
| COC[C@@]12CC[C@@H](N3CCOCC3)C[C@H]1CCN(c1cnccn1)C2 | 13.9 |
| COCCN1CCc2ncnc(N(C)C)c2CC1 | -10.9 |
| NC(=O)C1CCN(C(=O)NCc2csc(Br)c2)CC1 | -7.32 |
| O=S(=O)(NCCN1CC=CC1)c1cncc(Cl)c1 | -0.531 |
| Cn1ccc(-c2cc(C(=O)N3CCC(O)CC3)c3ccccn23)n1 | 29.8 |
| CCOC(=O)C1CN(C(=O)C2CCOCC2)Cc2ncn(CC)c21 (stereo not given) | -3.55 |
| Cc1cccc(-n2cc(C(=O)N3CCCC(n4ccnc4)C3)nn2)c1 (stereo not given) | 15.2 |
| c1c(CN2CCCC2)nc2n1CCN(CC1CC1)C2 | -4.19 |
| Cc1cccc(N2CCCC3(C2)CN(S(C)(=O)=O)CCO3)c1 (stereo not given) | -4.48 |
| CCCC(NC(=O)c1ccccn1)c1nnc2ccccn12 (stereo not given) | -12.2 |
| CN(C)c1cc(CNC(=O)C2COc3ccccc3O2)ccn1 (stereo not given) | -6.63 |
| COCC(C)N(C)C(=O)c1ccc2nncn2c1 (stereo not given) | -2.4 |
| NC(=O)COc1ccc(CNC(=O)CN2CCc3ccccc32)cc1 | 0.272 |
| Cc1cc(CN(C)C(=O)c2ccc(Cl)cc2N2CCCC2=O)no1 | -12.5 |
| CCCC(=O)NC(C)c1nnc2n1CCC2 (stereo not given) | -15.3 |
| OCC1(O)CCN(c2ncccc2C(F)(F)F)CC1 | -0.128 |
| COCCNC(=O)[C@H]1CN(Cc2cccs2)C[C@H]2OCC[C@@H]12 | 25.4 |
| COc1ccc2c(ccn2CCC(=O)Nc2ccc(C(N)=O)cc2)c1 | -7.39 |
| Cc1cccc(-c2noc(Cn3nc(C(N)=O)ccc3=O)n2)c1 | -4.08 |
| CCn1ccnc1CN1CCN(CC(=O)NC(C2CC2)C2CC2)CC1 | 16.4 |
| CCOc1ccccc1-c1noc(CN2CCCC(O)C2)n1 (stereo not given) | -11.1 |
| COc1ccc(COCC(O)CNC(=O)c2cc(C)no2)cc1 (stereo not given) | -4.49 |
| CC(=O)N(C)Cc1cncc(C2CCCN2C2CCOCC2)n1 (stereo not given) | -9.86 |

| Compound | cytotoxicity at 70.5 h [%] |
| --- | --- |
| COc1cccc(CC(C)NCC(=O)Nc2ccccc2C)c1 (stereo not given) | -0.681 |
| CCNC(=O)CN1CCc2c(Br)ccc(F)c2C1 | 5.62 |
| O=S(=O)(Cc1nc(C2CC2)no1)c1ccccc1F | -11.9 |
| COc1ccccc1OCc1cc(C(=O)N2C[C@@H](C)O[C@@H](C)C2)n[nH]1 | -11.2 |
| NC(=O)C1CN(Cc2c[nH]cn2)CCN(C2CCOCC2)C1 (stereo not given) | -9.19 |
| COc1ccc(C2CC(=O)Oc3cc(C)[nH]c(=O)c32)c(OC)c1 (stereo not given) | -19.2 |
| CNC(=O)NC(=O)CCN1CCOC(c2ccc(Br)cc2)C1 (stereo not given) | -7.41 |
| CC(NC(=O)NCCCn1cncn1)c1ccccc1F (stereo not given) | -4.63 |
| CN1Cc2cnn(CC3CCCC3)c2C(COCC2CC2)C1 (stereo not given) | -1.16 |
| CN(C)C(=O)COCC1CN(Cc2ccoc2)Cc2nnn(C)c21 (stereo not given) | 15 |
| O=C(NCC1CC1)c1cc(Br)cnc1N1CCCCC1 | -1.59 |
| CC(NC(=O)C1CCN(C(C)C)CC1)c1nncn1C1CCCC1 (stereo not given) | -4.33 |
| O=C(CCC1CCN(C2Cc3ccccc3C2)CC1)NCC1CCCO1 (stereo not given) | 25.6 |
| Cc1cc(C(=O)N(C)CCCn2cccn2)nc(N)n1 | -5.11 |
| CC(=O)NCC(=O)N1Cc2nc(COCc3csc(C)n3)oc2C1 | -8.19 |
| CC(C)(C)OC(=O)NCC(=O)NCc1ccc(Cl)s1 | -0.913 |
| CN(CCNC(=O)N1CCCC1)C(=O)OC(C)(C)C | -11.5 |
| CN(Cc1ccc2c(c1)OCO2)C(=O)NCCc1cnn(C)c1 | -3.13 |
| CC(C)CN1C(=O)CC[C@H]2CN(C(=O)Cn3ccc(=O)cc3)CC[C@H]21 | 21.4 |
| Cc1nc(Nc2cnccn2)cc(C2CCCN(C(C)C)C2)n1 (stereo not given) | -8.23 |
| c1cncc(-c2nnc([C@H]3CCN(CC4CC4)C3)o2)c1 | 8.27 |
| CCOCc1ccc(NC(=O)N2CCCC2c2nncn2C)cc1 (stereo not given) | -6.88 |
| Cc1ccc(NC(=O)N2CC(C(=O)NC(C)C)C3(CCOCC3)C2)cc1 (stereo not given) | -6.28 |
